Test results from patent US20080274522A1, “METHOD FOR THE PRODUCTION OF 2-BUTANONE” (priority 2007, published 2008).
Like-named read-outs stand apart in the source and are kept apart here.

Experiments:
[1] = test system: Lactobacillus plantarum PN0512; assay: Growth of L. plantarum PN0512 in the presence of butanols at different temperatures (OD600); format: cell-based; parameters: key to Growth of L. plantarum PN0512 in the presence of 1-butanol / Growth of L. plantarum PN0512 in the presence of isobutanol / Growth of L. plantarum PN0512 in the presence of 2-butanol: +: growth observed as an increase in OD600.; −: no growth observed, i.e. no change in OD600
Procedure: Tolerance levels of bacterial strain Lactobacillus plantarum PN0512 (ATCC # PTA-7727) were determined at 25° C., 30° C. and 37° C. as follows. The strain was cultured in S30L medium (i.e., 10 mM ammonium sulfate, 5 mM potassium phosphate buffer, pH 7.0, 50 mM MOPS, pH 7.0, 2 mM MgCl2, 0.7 mM CaCl2, 50 μM MnCl2, 1 μM FeCl3, 1 μM ZnCl2, 1.72 μM CuCl2, 2.53 μM COCl2, 2.42 μM Na2MoO4, 2 μM thiamine hydrochloride, 10 mM glucose, and 0.2% yeast extract). An overnight culture in the absence of any test compound was started in 15 mL of the S30L medium in a 150 mL flask, with incubation at 37° C. in a shaking water bath. The next morning, the overnight culture was diluted into three 500 mL flasks containing 150 mL of fresh medium to an initial OD600 of about 0.08. Each flask was incubated in a shaking water bath, one each at 25° C., 30° C. and 37° C. Each large culture was allowed to acclimate at the test temperature for at least 0.5 h. […] Growth was followed by measuring OD600 for six hours after addition of the compounds.

E. coli (strain MG1655) = settings: for % Survival at 30° C. / % Survival at 37° C. / % Survival at 0° C.: 1 h; for Concentration at which E. coli cells were killed: one hour
Procedure: (§1) Using overnight cultures or cells from plates, 30 mL cultures of the microorganisms to be tested were started in the following culture media: • E. coli—Miller's LB medium (Teknova, Half Moon Bay, Calif.): • L. plantarum PN0512—Lactobacilli MRS Broth (BD Diagnostic Systems, Sparks, Md.). The E. coli and L. plantarum cultures were grown at 37° C. aerobically with shaking until the cultures were in log phase and the OD600 was between 0.6 and 0.8. A 50 μL aliquot of each culture was removed for a time zero sample. The remainder of the cultures was divided into six 5 mL portions and placed in six small incubation flasks or tubes. […] The flasks or tubes were incubated at a desired temperature, aerobically without shaking for 1 h. After the incubation with one of the butanols, 2 μL from each of the flasks (and in addition 2 μL of the time zero sample of the culture before exposure to one of the butanols) were pipetted into the “head” wells of a 96 well (8×12) microtiter plate, each containing 198 μL of LB medium to give a 10^−2 dilution of the culture. Subsequently, 10^−3, 10^−4, 10^−5, and 10^−6 serial dilutions of the cultures were prepared as follows. The 10^−3 dilution was prepared by pipetting 20 μL of the sample from the head well into the 180 μL LB medium in the next well using a multi-channel pipette. This procedure was repeated 3 more times on successive wells to prepare the 10^−4, 10^−5, and 10^−6 dilutions. After each liquid transfer, the solution in the well was mixed by pipetting it up and down 10 times with the multi-channel pipetor. A 5 μL aliquot of each dilution was spotted onto an LB plate using a multi-channel pipette starting with the 10^−6 dilution, then the 10^−5, and so on working from more to less dilute without a change of tips. The spots were allowed to soak into the agar by leaving the lid of the plate slightly open for 15 to 30 min in a sterile transfer hood. The plates were covered, inverted, and incubated overnight at 37° C. The following day, the number of colonies in the spots were counted from the different dilutions. The number of living cells/mL in each of the original culture solutions from which the 2 μL was withdrawn was calculated and compared to the number of cells in the control untreated culture to determine the % of the cells surviving.

[2] = test system: L. plantarum (strain PN0512); settings: for % Survival at 37° C. / % Survival at 23° C. / % Survival at 0° C.: 1 h; for Concentration at which L. plantarum PN0512 cells were killed: one hour
Procedure: as §1

1-butanol
Growth of L. plantarum PN0512 in the presence of 1-butanol ([1]; 1.0 % w/v, 37° C.): + | Growth of L. plantarum PN0512 in the presence of 1-butanol ([1]; 1.2 % w/v, 37° C.): + | Growth of L. plantarum PN0512 in the presence of 1-butanol ([1]; 1.4 % w/v, 37° C.): + | Growth of L. plantarum PN0512 in the presence of 1-butanol ([1]; 1.5 % w/v, 25° C.): + | Growth of L. plantarum PN0512 in the presence of 1-butanol ([1]; 1.5 % w/v, 30° C.): + | Growth of L. plantarum PN0512 in the presence of 1-butanol ([1]; 1.5 % w/v, 37° C.): + | Growth of L. plantarum PN0512 in the presence of 1-butanol ([1]; 1.6 % w/v, 37° C.): + | Growth of L. plantarum PN0512 in the presence of 1-butanol ([1]; 1.8 % w/v, 37° C.): + | Growth of L. plantarum PN0512 in the presence of 1-butanol ([1]; 2.0 % w/v, 25° C.): + | Growth of L. plantarum PN0512 in the presence of 1-butanol ([1]; 2.0 % w/v, 30° C.): + | Growth of L. plantarum PN0512 in the presence of 1-butanol ([1]; 2.0 % w/v, 37° C.): + | Growth of L. plantarum PN0512 in the presence of 1-butanol ([1]; 2.1 % w/v, 37° C.): + | Growth of L. plantarum PN0512 in the presence of 1-butanol ([1]; 2.2 % w/v, 37° C.): + | Growth of L. plantarum PN0512 in the presence of 1-butanol ([1]; 2.3 % w/v, 37° C.): + | Growth of L. plantarum PN0512 in the presence of 1-butanol ([1]; 2.4 % w/v, 25° C.): + | Growth of L. plantarum PN0512 in the presence of 1-butanol ([1]; 2.4 % w/v, 30° C.): + | Growth of L. plantarum PN0512 in the presence of 1-butanol ([1]; 2.4 % w/v, 37° C.): −^2 | Growth of L. plantarum PN0512 in the presence of 1-butanol ([1]; 2.7 % w/v, 30° C.): + | Growth of L. plantarum PN0512 in the presence of 1-butanol ([1]; 2.7 % w/v, 37° C.): − | Growth of L. plantarum PN0512 in the presence of 1-butanol ([1]; 2.9 % w/v, 25° C.): + | Growth of L. plantarum PN0512 in the presence of 1-butanol ([1]; 2.9 % w/v, 30° C.): − | Growth of L. plantarum PN0512 in the presence of 1-butanol ([1]; 2.9 % w/v, 37° C.): − | Growth of L. plantarum PN0512 in the presence of 1-butanol ([1]; 3.1 % w/v, 25° C.): + | Growth of L. plantarum PN0512 in the presence of 1-butanol ([1]; 3.1 % w/v, 30° C.): − | Growth of L. plantarum PN0512 in the presence of 1-butanol ([1]; 3.1 % w/v, 37° C.): − | Growth of L. plantarum PN0512 in the presence of 1-butanol ([1]; 3.2 % w/v, 25° C.): − | Growth of L. plantarum PN0512 in the presence of 1-butanol ([1]; 3.2 % w/v, 30° C.): − | Growth of L. plantarum PN0512 in the presence of 1-butanol ([1]; 3.3 % w/v, 25° C.): − | Growth of L. plantarum PN0512 in the presence of 1-butanol ([1]; 3.4 % w/v, 25° C.): − | Growth of L. plantarum PN0512 in the presence of 1-butanol ([1]; 3.4 % w/v, 30° C.): − | Concentration in which growth was observed ([1]; 25° C.): 3.1% | Concentration in which growth was not observed ([1]; 30° C.): 2.9% | Concentration in which growth was observed ([1]; 30° C.): 2.7% | Concentration in which growth was not observed ([1]; 37° C.): 2.4% | Concentration in which growth was observed ([1]; 37° C.): 2.3% | Growth of L. plantarum PN0512 in the presence of 1-butanol ([1]; […] w/v, 37° C.): − | Concentration with no toxic effect on E. coli cells (E. coli (strain MG1655); 0° C., one hour treatment): ≤ 4.5 % v/v | % Survival at 30° C. (E. coli (strain MG1655); 1-butanol 1 % v/v): 100% | % Survival at 37° C. (E. coli (strain MG1655); 1-butanol 1 % v/v): 72% | % Survival at 30° C. (E. coli (strain MG1655); 1-butanol 1.5 % v/v): 100% | % Survival at 37° C. (E. coli (strain MG1655); 1-butanol 1.5 % v/v): 20% | % Survival at 30° C. (E. coli (strain MG1655); 1-butanol 2 % v/v): 100% | % Survival at 37° C. (E. coli (strain MG1655); 1-butanol 2 % v/v): 0% | % Survival at 0° C. (E. coli (strain MG1655); 1-butanol 3 % v/v): 100% | % Survival at 30° C. (E. coli (strain MG1655); 1-butanol 3 % v/v): 0% | % Survival at 37° C. (E. coli (strain MG1655); 1-butanol 3 % v/v): 0% | % Survival at 0° C. (E. coli (strain MG1655); 1-butanol 4 % v/v): 100% | % Survival at 0° C. (E. coli (strain MG1655); 1-butanol […] v/v): 100% | % Survival at 37° C. (E. coli (strain MG1655); 1-butanol […] v/v): 0% | Concentration at which E. coli cells were killed (E. coli (strain MG1655); 30° C.): 3 % v/v | Concentration at which E. coli cells were killed (E. coli (strain MG1655); 37° C.): 2 % v/v | Concentration with no toxic effect on L. plantarum PN0512 cells ([2]; 0° C., one hour treatment): ≤ 4.5 % v/v | % Survival at 37° C. ([2]; 1-butanol 1 % v/v): 80% | % Survival at 37° C. ([2]; 1-butanol 1.5 % v/v): 58% | % Survival at 23° C. ([2]; 1-butanol 2 % v/v): 100% | % Survival at 37° C. ([2]; 1-butanol 2 % v/v): 29% | % Survival at 0° C. ([2]; 1-butanol 3 % v/v): 100% | % Survival at 23° C. ([2]; 1-butanol 3 % v/v): 82% | % Survival at 37° C. ([2]; 1-butanol 3 % v/v): 0% | % Survival at 0° C. ([2]; 1-butanol 4 % v/v): 100% | % Survival at 23° C. ([2]; 1-butanol 4 % v/v): 0% | % Survival at 0° C. ([2]; 1-butanol 5 % v/v): 0% | % Survival at 0° C. ([2]; 1-butanol 5.5 % v/v): 0% | % Survival at 0° C. ([2]; 1-butanol […] v/v): 100% | Concentration at which L. plantarum PN0512 cells were killed ([2]; 23° C.): 3.5 % v/v | Concentration at which L. plantarum PN0512 cells were killed ([2]; 37° C.): 2.5 % v/v
